Test results reported in US9907757B2, “Coated particles and pharmaceutical dosage forms” (Lek Pharmaceuticals d.d., priority 2003, dated 2018).

Assay: Oxidative degradation of amorphous and polymorphic forms of atorvastatin at 80° C. in air and oxygen (liquid chromatography)
Assay type: physicochemical
Conditions: hemicalcium salt; for Sensitivity to oxygen and oxidation (conclusion): from 80° C., 3 days, air/oxygen study; for Increase of degradation products %: in respect to reference samples stored at 4° C.
Description: The influence of oxygen on occurrence of degradation products of amorphous and four polymorphic forms of atorvastatin was investigated. The samples of amorphous atorvastatin and polymorphic forms I to IV of atorvastatin were exposed at 80° C. in normal (air) and oxygen atmosphere for 3 days. The assay of oxidation products was determined by liquid chromatography. All of the chosen forms of atorvastatin stored at 4° C. were analyzed as the reference samples.

[1] = stored at 80° C. 3 days in normal (air) atmosphere
[2] = stored at 80° C. 3 days in oxygen atmosphere

Row | SMILES | Sensitivity to oxygen and oxidation (conclusion) (listed as amorphous atorvastatin) | Increase of degradation products % [1] [%] | Increase of degradation products % [2] [%] | Sensitivity to oxygen and oxidation (conclusion)
1 | CC(C)c1c(C(=O)Nc2ccccc2)c(-c2ccccc2)c(-c2ccc(F)cc2)n1CC[C@@H](O)C[C@@H](O)CC(=O)O.CC(C)c1c(C(=O)Nc2ccccc2)c(-c2ccccc2)c(-c2ccc(F)cc2)n1CC[C@@H](O)C[C@@H](O)CC(=O)O.CC(C)c1c(C(=O)Nc2ccccc2)c(-c2ccccc2)c(-c2ccc(F)cc2)n1CC[C@@H](O)C[C@@H](O)CC(=O)[O-].CC(C)c1c(C(=O)Nc2ccccc2)c(-c2ccccc2)c(-c2ccc(F)cc2)n1CC[C@@H](O)C[C@@H](O)CC(=O)[O-].[Ca+2] (relative stereo) [Amorphous ATV, (R-(R*,R*))-2-(4-fluorophenyl-beta, delta-dihydroxy-5-(1-methylethyl)-3-phenyl-4-((phenylamino)carbonyl)-1H-pyrrole-1-heptanoic acid hemicalcium salt] | highly sensitive to oxidation | 1.04 | 3.4 | 
2 | CC(C)c1c(C(=O)Nc2ccccc2)c(-c2ccccc2)c(-c2ccc(F)cc2)n1CC[C@@H](O)C[C@@H](O)CC(=O)O.CC(C)c1c(C(=O)Nc2ccccc2)c(-c2ccccc2)c(-c2ccc(F)cc2)n1CC[C@@H](O)C[C@@H](O)CC(=O)O.CC(C)c1c(C(=O)Nc2ccccc2)c(-c2ccccc2)c(-c2ccc(F)cc2)n1CC[C@@H](O)C[C@@H](O)CC(=O)[O-].CC(C)c1c(C(=O)Nc2ccccc2)c(-c2ccccc2)c(-c2ccc(F)cc2)n1CC[C@@H](O)C[C@@H](O)CC(=O)[O-].[Ca+2] (relative stereo) [Crystalline form I, (R-(R*,R*))-2-(4-fluorophenyl-beta, delta-dihydroxy-5-(1-methylethyl)-3-phenyl-4-((phenylamino)carbonyl)-1H-pyrrole-1-heptanoic acid hemicalcium salt] |  | 0.04 | 0.07 | stable to oxygen and oxidation
3 | CC(C)c1c(C(=O)Nc2ccccc2)c(-c2ccccc2)c(-c2ccc(F)cc2)n1CC[C@@H](O)C[C@@H](O)CC(=O)O.CC(C)c1c(C(=O)Nc2ccccc2)c(-c2ccccc2)c(-c2ccc(F)cc2)n1CC[C@@H](O)C[C@@H](O)CC(=O)O.CC(C)c1c(C(=O)Nc2ccccc2)c(-c2ccccc2)c(-c2ccc(F)cc2)n1CC[C@@H](O)C[C@@H](O)CC(=O)[O-].CC(C)c1c(C(=O)Nc2ccccc2)c(-c2ccccc2)c(-c2ccc(F)cc2)n1CC[C@@H](O)C[C@@H](O)CC(=O)[O-].[Ca+2] (relative stereo) [Crystalline form II, (R-(R*,R*))-2-(4-fluorophenyl-beta, delta-dihydroxy-5-(1-methylethyl)-3-phenyl-4-((phenylamino)carbonyl)-1H-pyrrole-1-heptanoic acid hemicalcium salt] |  | 0.25 | 0.71 | slightly sensitive to oxidation
4 | CC(C)c1c(C(=O)Nc2ccccc2)c(-c2ccccc2)c(-c2ccc(F)cc2)n1CC[C@@H](O)C[C@@H](O)CC(=O)O.CC(C)c1c(C(=O)Nc2ccccc2)c(-c2ccccc2)c(-c2ccc(F)cc2)n1CC[C@@H](O)C[C@@H](O)CC(=O)O.CC(C)c1c(C(=O)Nc2ccccc2)c(-c2ccccc2)c(-c2ccc(F)cc2)n1CC[C@@H](O)C[C@@H](O)CC(=O)[O-].CC(C)c1c(C(=O)Nc2ccccc2)c(-c2ccccc2)c(-c2ccc(F)cc2)n1CC[C@@H](O)C[C@@H](O)CC(=O)[O-].[Ca+2] (relative stereo) [Crystalline form III, (R-(R*,R*))-2-(4-fluorophenyl-beta, delta-dihydroxy-5-(1-methylethyl)-3-phenyl-4-((phenylamino)carbonyl)-1H-pyrrole-1-heptanoic acid hemicalcium salt] |  | 0.11 | 0.47 | slightly sensitive to oxidation
5 | CC(C)c1c(C(=O)Nc2ccccc2)c(-c2ccccc2)c(-c2ccc(F)cc2)n1CC[C@@H](O)C[C@@H](O)CC(=O)O.CC(C)c1c(C(=O)Nc2ccccc2)c(-c2ccccc2)c(-c2ccc(F)cc2)n1CC[C@@H](O)C[C@@H](O)CC(=O)O.CC(C)c1c(C(=O)Nc2ccccc2)c(-c2ccccc2)c(-c2ccc(F)cc2)n1CC[C@@H](O)C[C@@H](O)CC(=O)[O-].CC(C)c1c(C(=O)Nc2ccccc2)c(-c2ccccc2)c(-c2ccc(F)cc2)n1CC[C@@H](O)C[C@@H](O)CC(=O)[O-].[Ca+2] (relative stereo) [Crystalline form IV, (R-(R*,R*))-2-(4-fluorophenyl-beta, delta-dihydroxy-5-(1-methylethyl)-3-phenyl-4-((phenylamino)carbonyl)-1H-pyrrole-1-heptanoic acid hemicalcium salt] |  | 1.14 | 3.67 | highly sensitive to oxidation
